PubChem BioAssay (NCI)
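96-well plates; 48 h exposure; 5 concentrations. Endpoints by linear interpolation between flanking doses. Not reached: highest tested concentration assigned. At the TGI there is no net growth.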

Tests used:
Assay in all cases: inhibition of tumour cell growth, NCI panel, 48 h
MALME-3M melanoma = system: MALME-3M melanoma
EKVX NSCLC = system: EKVX NSCLC
SW-620 colon = system: SW-620 colon
UO-31 renal = system: UO-31 renal
SK-MEL-5 melanoma = system: SK-MEL-5 melanoma
SNB-19 CNS = system: SNB-19 CNS
MDA-MB-435 = system: MDA-MB-435
A549 NSCLC = system: A549 NSCLC
OVCAR-3 ovarian = system: OVCAR-3 ovarian
MCF7 breast = system: MCF7 breast

Structure (SMILES)	TGI (MALME-3M melanoma) [µM]	TGI (EKVX NSCLC) [µM]	TGI (SW-620 colon) [µM]	TGI (UO-31 renal) [µM]	TGI (SK-MEL-5 melanoma) [µM]	TGI (SNB-19 CNS) [µM]	TGI (MDA-MB-435) [µM]	TGI (A549 NSCLC) [µM]	TGI (OVCAR-3 ovarian) [µM]	TGI (MCF7 breast) [µM]
CC(=O)Oc1c2oc3cc(O)c(O)cc3c2c(OC(C)=O)c2oc3cc(O)c(O)cc3c12	> 100	40.1	> 100	42	38.3	94.2	3.81	> 100		
[O-][n+]1c(-c2ccccc2)c2nc3ccccc3nc2c2ccccc21	> 100	> 100	> 100	> 100	> 100	> 100		> 100	> 100	
O=S(=O)(OI(O)CC(F)(F)F)C(F)(F)F		> 100	> 100	> 100	> 100		> 100	> 100	> 100	> 100
Cc1ccc(-c2cc(-c3c(C)nn(C)c(=O)c3N)[nH]n2)cc1	> 100	> 100	> 100		> 100	> 100	> 100	> 100	> 100	> 100
CCCCCCCCCc1c(O)c(O)c(CCCCCCCCC)c(CCCCCCCCC)c1CCCCCCCCC	> 100	> 100	> 100		> 100	> 100	> 100	> 100	> 100	> 100
CN(C)c1ccc(C(=NN)c2ccc(N(C)C)cc2)cc1	> 100	> 100	> 100	> 100	> 100	> 100	0.298	> 100		> 100
CC(O[Si](c1ccccc1)(c1ccccc1)C(C)(C)C)[C@H](NC(=O)OC(C)(C)C)C(=O)O (some centres not stated)	> 100	> 100	> 100	> 100	50.8	> 100		> 100		> 100
Cc1c(-c2ccccc2)c(C#N)c2nnn(-c3cccc(Cl)c3)c(=O)n12	> 100	> 100	> 100		> 100		> 100		> 100	> 100
CCN(CC)C(=S)SS(=O)(=O)c1ccccc1[N+](=O)[O-]	22.2	> 100	> 53.7	31.2	24.8	> 92.8	53.9	> 100	68	
CC(=O)N/C(=C\c1ccc(/C=C(\NC(C)=O)C2=NC3C(=O)c4ccccc4C(=O)C3N2)cc1)C1=NC2C(=O)c3ccccc3C(=O)C2N1 (configuration not stated)		> 100		74.1		> 100			> 100	
O=C(O)c1ccc(Nc2nc3cc(C(F)(F)F)ccc3nc2-c2ccccc2)cc1	> 100	92	30.9	36.9	> 100	> 100	> 100	40.3	28.4	
O=C1NC(S(=O)(=O)O)=NNC12c1ccccc1-c1ccccc12	> 10	> 10	> 10	> 10	> 10	> 10	> 10	> 10		> 10
